Read-outs that look alike come from different tables or passages of the source.

24 compounds from patent publication US20240254138A1, “TRICYCLIC PYRIMIDINES AS CYCLIN-DEPENDENT KINASE 7 (CDK7) INHIBITORS” (JANSSEN PHARMACEUTICA NV, priority 2021, published 2024) can be followed below.

The target of series [1] is CDK7/cyclinH/MAT1 trimeric complex (Homo sapiens, UniProt P50613). The series can be described thus: In vitro CDK7 assay, potency of irreversible covalent inhibitors (kinact/KI), coupled PK/LDH ADP readout at 340 nm. The conditions noted are these: for Ki: CDK7 (20 nM enz.) (KI, μM), 20 nM enzyme; for kinact: read-out: CDK7 (20 nM enz.) (kinact, s^−1), 20 nM enzyme; for CDK7 (kinact/KI, M^−1*s^−1): potency of irreversible covalent inhibitors, 1 mM ATP, room temperature, averaged values over all measurements.

The test system of series [2] is RNA Polymerase II Serine 5 phosphorylation in A549 cells overexpressing CDK7-mutant (C312S). The series can be described thus: Imaging-based cellular RNA PolII Ser5 phosphorylation assay in A549 cells overexpressing CDK7-mutant (C312S). The series is classed as cell-based, human. The conditions noted are these: RNA PolII Ser5 phosphorylation, averaged over all measurements; for IC50: Homo sapiens, A549, A549 cells overexpressing CDK7-mutant (C312S), read-out: CDK7_A549 mutant hCDK7(pIC50) (converted); for CDK7_A549 mutant hCDK7(pIC50): A549 cells overexpressing CDK7-mutant (C312S). The procedure, abridged:
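A549 cells overexpressing CDK7 C312S (with endogenous wild-type CDK7) were treated with compound for 3 h at 37 °C in 1% FBS medium. Phospho-Rpb1 CTD Ser5 was immunostained after fixation and imaged. IC50 came from curve fit of % control, normalised to DMSO and 10 μM reference-compound controls.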

For series [3], the system named is RNA Polymerase II Serine 5 phosphorylation (Rpb1 CTD, downstream substrate of CDK7) in A549 cells. The series can be described thus: Imaging-based cellular RNA PolII Ser5 phosphorylation assay in A549 cells. The series is classed as cell-based, human. To be noted: wild-type CDK7, RNA PolII Ser5 phosphorylation, averaged over all measurements; for IC50: Homo sapiens, A549, A549 cells, read-out: CDK7_A549 Wild-type CDK7 (pIC50) (converted); for CDK7_A549 Wild-type CDK7 (pIC50): A549 cells. Put shortly: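 A549 cells, seeded 1000/well in DMEM with 1% FBS and cultured 20 h, were treated with compound for 3 h at 37 °C. Ser5-phospho-Rpb1 CTD detected by immunofluorescence imaging after fixation and methanol permeabilization; IC50 from curve fit normalized to DMSO and 10 μM reference-compound controls.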

[4] abbreviates: read-out: CDK7 (20 nM enz.) (kinact/KI, M^−1*s^−1), 20 nM enzyme.
Where [5] appears, read: read-out: CDK7 (20 nM enz.) (kobs/[I], M^−1*s^−1), 20 nM enzyme.

Sequence of CDK7/cyclinH/MAT1 trimeric complex (P50613 whole entry): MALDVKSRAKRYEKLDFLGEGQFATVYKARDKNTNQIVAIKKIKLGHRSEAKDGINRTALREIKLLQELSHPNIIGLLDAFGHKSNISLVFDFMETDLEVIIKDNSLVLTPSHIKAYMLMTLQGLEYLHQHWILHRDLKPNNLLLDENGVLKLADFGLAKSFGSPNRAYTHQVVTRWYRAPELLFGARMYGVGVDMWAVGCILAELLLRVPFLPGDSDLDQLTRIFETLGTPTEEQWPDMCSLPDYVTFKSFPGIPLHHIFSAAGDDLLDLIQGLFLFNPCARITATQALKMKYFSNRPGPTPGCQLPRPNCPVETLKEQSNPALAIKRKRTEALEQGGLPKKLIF
Sequence of CDK7/cyclinH/MAT1 trimeric complex (P51946 whole entry partner): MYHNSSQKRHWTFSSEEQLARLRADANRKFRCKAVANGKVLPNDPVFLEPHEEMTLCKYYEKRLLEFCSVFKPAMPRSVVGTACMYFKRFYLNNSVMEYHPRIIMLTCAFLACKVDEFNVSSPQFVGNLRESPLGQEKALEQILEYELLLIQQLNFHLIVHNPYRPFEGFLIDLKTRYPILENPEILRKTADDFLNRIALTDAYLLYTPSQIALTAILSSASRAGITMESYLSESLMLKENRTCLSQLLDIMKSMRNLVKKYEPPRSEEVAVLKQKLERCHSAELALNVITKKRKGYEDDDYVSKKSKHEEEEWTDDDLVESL
Sequence of CDK7/cyclinH/MAT1 trimeric complex (P51948 whole entry partner): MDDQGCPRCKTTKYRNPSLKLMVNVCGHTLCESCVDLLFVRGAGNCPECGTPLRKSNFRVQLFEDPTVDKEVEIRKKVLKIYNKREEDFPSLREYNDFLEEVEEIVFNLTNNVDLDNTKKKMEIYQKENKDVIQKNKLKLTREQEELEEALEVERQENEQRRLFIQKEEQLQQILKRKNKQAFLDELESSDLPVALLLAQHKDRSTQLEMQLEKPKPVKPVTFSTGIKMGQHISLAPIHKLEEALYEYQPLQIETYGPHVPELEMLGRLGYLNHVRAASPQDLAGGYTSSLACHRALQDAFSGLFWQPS

For the compound `C=CC(=O)N1CC(N2CCC(c3ccc4c(c3)Nc3nccc(-c5cnn(C)c5)c3[C@H](C)O4)CC2)C1` (single isomer, unassigned) [Compound 128], the melting point is 223.3 °C. Moreover, in series [1], the Ki is 10.2 µM and the kinact was 0.000115 s⁻¹. In addition, the kinact/KI in series [1] (setting [4]) amounted to 11.3 M⁻¹ s⁻¹. The IC50 in series [2] was greater than 10000 nM. In series [3], the IC50 is 4470 nM.
`C=CC(=O)N1CC(N2CC[C@H](c3cc4c(c(C)n3)O[C@@H](C)c3c(N5CCOCC5)ccnc3N4)C2)C1` (single isomer, unassigned) [Compound 218]: the melting point is greater than 300 °C. Moreover, in series [1] (setting [4]), the kinact/KI is 0.84 M⁻¹ s⁻¹. The IC50 in series [2] is greater than 10000 nM. Moreover, the IC50 in series [3] is 8510 nM.
Take `C=CC(=O)N1CC[C@H](N2CCC(c3ccc4c(c3)Nc3ncc(F)c(N5CCOCC5)c3CO4)CC2)C1` (single isomer, unassigned) [Compound 222]: the melting point came to 138 °C. For the same compound, in series [1], the Ki was 0.18 µM and the kinact amounted to 7.49e-05 s⁻¹. Besides, the kinact/KI in series [1] (setting [4]) worked out at 416 M⁻¹ s⁻¹. The IC50 in series [2] was greater than 10000 nM. Also, the IC50 in series [3] was 97.7 nM.
Regarding `C=CC(=O)N1CC[C@@H](N2CCC(c3ccc4c(c3)Nc3ncc(F)c(N5CCOCC5)c3CO4)CC2)C1` (single isomer, unassigned) [Compound 223], the melting point was determined as 106 °C. In series [1], the Ki is 0.127 µM and the kinact came out at 6.11e-05 s⁻¹. Besides, the kinact/KI in series [1] (setting [4]) is 480 M⁻¹ s⁻¹. Also, the IC50 in series [2] was 7590 nM. For the same compound, the IC50 in series [3] was 41.7 nM.
`C=CC(=O)N1CC(N2CCC(c3cc4c(c(C)n3)O[C@H](C)c3c(N5CCOCC5)ccnc3N4)CC2)C1` (single isomer, unassigned) [Compound 262]: the melting point is 225 °C. Also, in series [1], the Ki worked out at 0.0323 µM and the kinact is 3.71e-05 s⁻¹. Further, the kinact/KI in series [1] (setting [4]) came out at 1150 M⁻¹ s⁻¹. Besides, in series [2], the IC50 was greater than 10000 nM. Further, the IC50 in series [3] was 29.5 nM.
Compound `C=CC(=O)N1CC(N2CCC(c3cc4c(cn3)O[C@H](C)c3c(N5CCOCC5)ccnc3N4)CC2)C1` (single isomer, unassigned) [Compound 263] showed a melting point greater than 300 °C. Besides, in series [1], the Ki was 0.168 µM and the kinact turned out to be 5.18e-05 s⁻¹. Further, the kinact/KI in series [1] (setting [4]) was 308 M⁻¹ s⁻¹. Further, the IC50 in series [2] is greater than 3980 nM. In addition, in series [3], the IC50 was 51.3 nM.
Regarding `C=CC(=O)N1CC(N2CCC(c3cc4c(c(C)n3)O[C@@H](C)c3c(N5CCOCC5)ccnc3N4)CC2)C1` (single isomer, unassigned) [Compound 265], the melting point was 288.5 °C. Also, the IC50 in series [2] is greater than 10000 nM. In addition, the IC50 in series [3] was 2090 nM.
`C#Cc1cc(C2CCN(C3CN(C(=O)C=C)C3)CC2)cc2c1O[C@H](C)c1c(N3CCOCC3)ccnc1N2` (single isomer, unassigned) [Compound 268] returned a melting point of 236.7 °C. Besides, in series [1], the Ki worked out at 0.934 µM and the kinact was determined as 4.13e-05 s⁻¹. In addition, the kinact/KI in series [1] (setting [4]) was 44.2 M⁻¹ s⁻¹. Moreover, the IC50 in series [2] is greater than 10000 nM. The IC50 in series [3] is 1070 nM.
In turn, `C=CC(=O)N1CC(N2CCC(c3cc(C#N)c4c(c3)Nc3nccc(N5CCOCC5)c3[C@H](C)O4)CC2)C1` (single isomer, unassigned) [Compound 353] showed a melting point of 220.7 °C. In series [1], the Ki was 4.52 µM and the kinact stood at 0.000132 s⁻¹. Further, the kinact/KI in series [1] (setting [4]) is 29.2 M⁻¹ s⁻¹. In addition, in series [2], the IC50 was greater than 10000 nM. Moreover, the IC50 in series [3] was 209 nM.
`C=C(C(=O)N1CC(N2CCC(c3cc4c(c(C)n3)O[C@@H](C)c3c(N5CCOCC5)ccnc3N4)CC2)C1)n1cccn1` (single isomer, unassigned) [Compound 523]: the melting point was found to be 148 °C. Besides, in series [1], the Ki came out at 0.0496 µM and the kinact was 1.97e-05 s⁻¹. The kinact/KI in series [1] (setting [4]) worked out at 398 M⁻¹ s⁻¹. The IC50 in series [2] was greater than 10000 nM. Also, the IC50 in series [3] was 97.7 nM.
Compound `C=C(C(=O)N1CC(N2CCC(c3cc4c(c(C)n3)O[C@H](C)c3c(N5CCOCC5)ccnc3N4)CC2)C1)n1cccn1` (single isomer, unassigned) [Compound 526] displayed a melting point of 131.3 °C. In series [1], the Ki was 0.0767 µM and the kinact is 2.61e-05 s⁻¹. Further, the kinact/KI in series [1] (setting [4]) is 340 M⁻¹ s⁻¹. In addition, the IC50 in series [2] was greater than 2510 nM. Besides, in series [3], the IC50 is 14.1 nM.
Turning to `C=CC(=O)N1CCC(N2CCC(c3cc4c(c(C)n3)OCc3c(N5CCOCC5)ccnc3N4)CC2=O)CC1` (stereo not shown) [Compound 476], in series [1], the Ki was determined as 0.236 µM and the kinact amounted to 2.18e-05 s⁻¹. Besides, in series [1] (setting [4]), the kinact/KI worked out at 92.5 M⁻¹ s⁻¹. Besides, in series [2], the IC50 is greater than 10000 nM. In addition, in series [3], the IC50 is 550 nM.
`CC#CC(=O)N1CCC(N2CCC(c3cc4c(c(C)n3)OCc3c(N5CCOCC5)ccnc3N4)CC2=O)CC1` (stereo not shown) [Compound 484]: in series [1] (setting [4]), the kinact/KI worked out at 289 M⁻¹ s⁻¹. Further, the values for the IC50 in series [2] and in series [3] were greater than 10000 nM and 141 nM, respectively.
The matching figures for `CC#CC(=O)N1CCC(N2CC(c3cc4c(c(C(F)(F)F)n3)OCc3c(N5CCOCC5)ccnc3N4)C2)CC1` [Compound 490]: 473 M⁻¹ s⁻¹, 3310 nM and 74.1 nM.
With `C=C(C(=O)N1CC(N2CCC(c3cc4c(c(C)n3)OCc3c(N5CCOCC5)ccnc3N4)CC2)C1)n1cccn1` [Compound 496], the kinact/KI in series [1] (setting [5]) amounted to 680 M⁻¹ s⁻¹. The IC50 in series [2] was 7240 nM; in series [3], 14.1 nM.
Regarding `CC#CC(=O)N1CCC(N2CC(c3cc4c(c(C#N)n3)OCc3c(-c5cnn(C)c5)ccnc3N4)C2)C1` (stereo not shown) [Compound 529], in series [1], the Ki came to 0.0408 µM and the kinact was found to be 1.66e-05 s⁻¹. The kinact/KI in series [1] (setting [4]) came to 409 M⁻¹ s⁻¹. Also, the IC50 in series [2] was greater than 10000 nM. For the same compound, in series [3], the IC50 is 1740 nM.
The like results for `Cc1nc(C2CN(C3CCN(C(=O)/C=C/CN(C)C)CC3)C2)cc2c1OCc1c(-c3cnn(C)c3)ccnc1N2` [Compound 532] were, in that order, 0.0823 µM, 1.52e-05 s⁻¹, 184 M⁻¹ s⁻¹, 10200 nM and 427 nM.
Regarding `C=C(C)C(=O)N1CC(N2CCC(c3cc4c(c(C)n3)OCc3c(-c5cnn(C)c5)ccnc3N4)CC2)C1` [Compound 536], the Ki in series [1] was determined as 6.8 µM. In addition, the IC50 in series [2] and in series [3] was greater than 10000 nM each time.
With `C=C(F)C(=O)N1CC(N2CCC(c3cc4c(c(C)n3)OCc3c(-c5cnn(C)c5)ccnc3N4)CC2)C1` [Compound 539], the Ki in series [1] came out at 0.0196 µM. Also, the IC50 in series [2] is greater than 10000 nM; in series [3] it was 1320 nM.
`Cc1nc(C2CCN(C3CN(C(=O)/C=C/CN(C)C)C3)CC2)cc2c1OCc1c(-c3cnn(C)c3)ccnc1N2` [Compound 540]: in series [1], the Ki came out at 0.0301 µM and the kinact was found to be 7.15e-05 s⁻¹. In addition, in series [1] (setting [4]), the kinact/KI was 2310 M⁻¹ s⁻¹. The IC50 in series [2] was greater than 10000 nM. For the same compound, the IC50 in series [3] was 550 nM.
`C=CC(=O)N1CC(N2CCC(c3ccc4c(c3)Nc3nccc(N5CCOCC5)c3CO4)CC2)C1` [compound 7]: the “CDK7 (kinact/KI, M^−1*s^−1)” value in series [1] came to 1065.34 M⁻¹ s⁻¹. In addition, the “CDK7_A549 mutant hCDK7(pIC50)” value in series [2] was less than 5. For the same compound, in series [3], the “CDK7_A549 Wild-type CDK7 (pIC50)” value was 6.84.
As to `C=CC(=O)N1CC(N2CCC(c3ccc4c(c3)Nc3nccc(N5CCS(=O)(=O)CC5)c3CO4)CC2)C1` [compound 14], in series [1], the Ki was 0.13 µM; the “CDK7 (kinact/KI, M^−1*s^−1)” value turned out to be 710 M⁻¹ s⁻¹; the kinact amounted to 7.07e-05 s⁻¹. Besides, in series [1] (setting [4]), the kinact/KI came out at 545 M⁻¹ s⁻¹. The “CDK7_A549 mutant hCDK7(pIC50)” value in series [2] is on record as less than 5. The “CDK7_A549 Wild-type CDK7 (pIC50)” value in series [3] is reported as 6.4.
`C=CC(=O)N1CC(N2CCC(c3ccc4c(c3)Nc3nccc(C5CCOCC5)c3CO4)CC2)C1` [compound 15]: the “CDK7 (kinact/KI, M^−1*s^−1)” value in series [1] was found to be 320.6 M⁻¹ s⁻¹. Also, the “CDK7_A549 mutant hCDK7(pIC50)” value in series [2] is listed as less than 5. The “CDK7_A549 Wild-type CDK7 (pIC50)” value in series [3] came to 7.26.
For the compound `C=CC(=O)N1CC(N2CCC(c3ccc4c(c3)Nc3nccc(C5CCOCC5)c3CO4)CC2)C1` [compound 34], in series [1], the “CDK7 (kinact/KI, M^−1*s^−1)” value is 2083.98 M⁻¹ s⁻¹. Further, the kinact/KI in series [1] (setting [5]) came out at 1030 M⁻¹ s⁻¹. In series [2], the “CDK7_A549 mutant hCDK7(pIC50)” value is reported as less than 5. For the same compound, in series [3], the “CDK7_A549 Wild-type CDK7 (pIC50)” value was 6.81.

By kinact is commonly meant the maximal first-order rate at which the target is inactivated. One may read the melting point as the temperature, or range, at which the solid turns liquid.
